Test results published in paper PMC4208851, “Development of Nanoparticles Incorporating a Novel Liposomal Membrane Destabilization Peptide for Efficient Release of Cargos into Cancer Cells” (PLoS ONE, 2014).
Where no end group is shown, it is not given here.

Biological target: T1, γ-secretase (Homo sapiens, UniProt P49768)
T1 construct: The solubilized membrane preparations of A549 (16.5 µg total protein) were incubated with 100 µM LMDP or LMDP-lipo; endogenous in cells; host or cells: A549 cells, CHAPSO-solubilized membrane fraction
Test: Cleavage of fluorescence-quenching substrate peptide probe by γ-secretase in solubilized A549 membrane fraction (competitive inhibition / inhibitor test)
Assay type: biochemical
Protocol: The membrane fraction was prepared according to previous reports. All procedures were carried out on ice. Cultured HeLa cells, A549 cells, MCF-7 cells and HUEhT-2 cells (about 1×10^8 cells) were pelleted. Cells were resuspended in a buffer containing 20 mM Hepes, pH 7.5, 50 mM KCl, 2 mM EGTA, and protease inhibitor cocktail, Complete Mini (Roche Applied Science), and homogenized using 15 strokes of a Dounce homogenizer with a tight pestle. The cellular homogenates were centrifuged at 800 × g for 10 min and rehomogenized as above. […] The total protein concentration was determined with a BCA Protein Assay Kit (Thermo scientific).
To measure γ-secretase activity, solubilized membrane preparations ([…] total protein) were incubated with eight µM fluorescence-quenching peptide substrate at 37°C overnight and centrifuged at 16,100 × g for 15 min. The fluorescence of supernatants was measured by Plate Infinite M200 (TECAN) with an excitation wavelength of 355 nm and emission wavelength of 440 nm.
To study LMDP cleavage by γ-secretase, the competitive inhibitory effect of LMDP or LMDP-lipo on the cleavage of the peptide substrate (the same as that used in 2.2) was evaluated. […] Then, the fluorescence intensity was measured as described in 2.2. […]

IC50 (A549 solubilized membrane 16.5 µg protein, 5 µM peptide substrate, 0-100 µM LMDP, 37°C overnight, fluorescence ex 355/em 440 nm, n = 3, read-out: IC50, competitive inhibition of cleavage of fluorescent substrate peptide probe) [µM]	Molecule	Inhibition of γ-secretase activity (A549 membrane fraction preincubated with DAPT 37°C 30 min, then substrate peptide probe 37°C overnight (Fig. S3))
29	LHLMYVAAAAFVLLFFVGCGVLLSRKRRR [LMDP]	–
–	C[C@H](NC(=O)Cc1cc(F)cc(F)c1)C(=O)N[C@H](C(=O)OC(C)(C)C)c1ccccc1 [DAPT, N-[N-(3,5-Difluorophenacetyl)-L-alanyl]-S-phenylglycine t-butyl ester]	about 60%
